Source: article PMC8251996 (2021)

Columns and labels:
[1] = test system: ds6 (DNA, duplex) CGTACG; experiment: fluorescence titration, independent equivalent sites; details: Na+ (100 mM NaCl, 10 mM sodium phosphate); buffer not in material
[2] = test system: ds10 (DNA, duplex) AAGAATTCTT; experiment: as above; details: Na+ (100 mM NaCl, 10 mM sodium phosphate); buffer not in material

Row | K b [1] | K b [2] | SMILES
1 | (1.6±1.4)×10^6 M^-1 | (1.6±1.3)×10^6 M^-1 | Oc1ccc(/C=C/c2cc(O)cc(O)c2)cc1
2 | (1.2±0.5)×10^6 M^-1 | (1.6±0.9)×10^6 M^-1 | COc1cc(/C=C/c2ccc(O)cc2)cc(OC)c1
